Laboratory results from the NIST ThermoML archive (doi:10.1021/je060411g).

Legend:
[1] = molar heat capacity at constant pressure; settings: 101.33 kPa
[2] = Glass

CC(C)CCO [3-methylbutan-1-ol]
[1]
Settings | molar heat capacity at constant pressure [J/K/mol]
79.29 K, Glass | 64.16
79.93 K, Glass | 64.23
81.22 K, Glass | 65.13
83.16 K, Glass | 66.6
85.07 K, Glass | 67.98
86.97 K, Glass | 69.22
88.88 K, Glass | 70.53
90.79 K, Glass | 71.96
92.71 K, Glass | 73.36
94.62 K, Glass | 74.71
96.54 K, Glass | 76.12
98.47 K, Glass | 77.7
100.4 K, Glass | 79.43
102.33 K, Glass | 80.27
104.26 K, Glass | 81.54
106.19 K, Glass | 83.08
108.13 K, Glass | 84.68
110.07 K, Glass | 86.19
112.01 K, Glass | 87.96
113.94 K, Glass | 90.43
115.88 K, Glass | 94.62
123.04 K, Liquid | 144.09
124.93 K, Liquid | 144.11
126.89 K, Liquid | 144.29
128.85 K, Liquid | 144.62
130.82 K, Liquid | 144.96
132.79 K, Liquid | 145.22
134.76 K, Liquid | 145.47
136.73 K, Liquid | 145.74
138.7 K, Liquid | 146.13
140.67 K, Liquid | 146.33
142.65 K, Liquid | 146.61
144.62 K, Liquid | 146.82
146.59 K, Liquid | 147.14
148.57 K, Liquid | 147.5
150.54 K, Liquid | 147.86
152.52 K, Liquid | 148.08
154.49 K, Liquid | 148.41
156.46 K, Liquid | 148.76
158.43 K, Liquid | 148.95
160.41 K, Liquid | 149.4
162.38 K, Liquid | 149.76
164.35 K, Liquid | 149.96
166.32 K, Liquid | 150.38
168.29 K, Liquid | 150.9
170.27 K, Liquid | 151.21
172.24 K, Liquid | 151.76
174.21 K, Liquid | 152.03
176.19 K, Liquid | 152.42
178.16 K, Liquid | 152.92
180.14 K, Liquid | 153.49
182.11 K, Liquid | 153.84
184.09 K, Liquid | 154.42
186.07 K, Liquid | 154.93
188.05 K, Liquid | 155.51
190.03 K, Liquid | 156.14
192.01 K, Liquid | 156.62
193.99 K, Liquid | 157.15
195.96 K, Liquid | 157.72
197.94 K, Liquid | 158.12
199.92 K, Liquid | 158.79
201.91 K, Liquid | 159.5

Settings | Glass transition temperature [°C]
[2] | -155
